Source: ChEMBL document CHEMBL6178018, “Design of an Oral STING Agonist through Intramolecular Hydrogen Bond Ring Mimicking to Achieve Complete Tumor Regression” (J Med Chem, 2025)
Calls of active or inactive are those of the source. No cut-off for these calls is given here.

Assays:
[1] = biological target: T1, Stimulator of interferon genes protein (Homo sapiens, UniProt Q86WV6); assay: Agonist activity at human STING HAQ variant in human THP1-Blue ISG cells assessed as fold change in stimulation activity measured after 24 hrs incubation by QUANTI-Blue based microplate reader; assay type: cell-based
Target sequence in this assay (Q86WV6 whole entry, looked up, change not shown): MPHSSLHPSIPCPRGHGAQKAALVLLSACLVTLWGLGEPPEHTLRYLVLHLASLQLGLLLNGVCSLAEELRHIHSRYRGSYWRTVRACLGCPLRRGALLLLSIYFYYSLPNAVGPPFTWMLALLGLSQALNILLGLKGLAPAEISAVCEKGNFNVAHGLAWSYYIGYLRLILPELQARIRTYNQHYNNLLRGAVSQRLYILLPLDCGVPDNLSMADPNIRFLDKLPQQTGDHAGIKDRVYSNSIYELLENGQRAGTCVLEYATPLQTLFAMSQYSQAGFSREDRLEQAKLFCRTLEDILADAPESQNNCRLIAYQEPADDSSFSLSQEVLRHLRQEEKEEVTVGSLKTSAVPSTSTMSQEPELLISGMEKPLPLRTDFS

[2] = biological target: T1, Stimulator of interferon genes protein; assay: Binding affinity to wild type His-tagged STING (unknown origin) measured after 3 hrs incubation by HTRF assay
Target sequence in this assay (Q86WV6 whole entry): as the sequence (Q86WV6 whole entry, looked up, change not shown) above

[3] = biological target: T1, Stimulator of interferon genes protein; assay: Agonist activity at STING R232 mutant (unknown origin) expressed in human THP1-Dual cells assessed as fold change in stimulation activity measured after 24 hrs incubation by QUANTI-Luc4 based microplate reader; assay type: cell-based
Target sequence in this assay (Q86WV6 whole entry, looked up, change not shown): as above

[4] = biological target: T2, Stimulator of interferon genes protein (Mus musculus, UniProt Q3TBT3); assay: Agonist activity at mouse STING expressed in human THP1-Dual cells assessed as fold change in stimulation activity measured after 24 hrs incubation by QUANTI-Luc4 based microplate reader; assay type: cell-based
T2 sequence (Q3TBT3 whole entry): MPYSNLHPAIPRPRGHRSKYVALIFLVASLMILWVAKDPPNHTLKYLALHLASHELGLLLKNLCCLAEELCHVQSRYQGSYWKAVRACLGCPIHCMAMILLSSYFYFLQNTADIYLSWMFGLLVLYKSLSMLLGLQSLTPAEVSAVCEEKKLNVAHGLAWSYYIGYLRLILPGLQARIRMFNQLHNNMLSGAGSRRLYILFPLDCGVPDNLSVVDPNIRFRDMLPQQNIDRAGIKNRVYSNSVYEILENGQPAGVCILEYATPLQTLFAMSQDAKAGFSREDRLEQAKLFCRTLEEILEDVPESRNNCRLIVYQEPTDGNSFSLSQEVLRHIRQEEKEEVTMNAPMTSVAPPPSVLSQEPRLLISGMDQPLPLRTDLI

[5] = Stability of the compound in mouse plasma assessed as half life by LC-MS/MS analysis; assay type: ADME, cell-free
MC-38 [6] = assay: In vivo antitumor activity against mouse MC-38 cells inoculated in C57BL/6 mouse assessed as complete tumor regression (CR) at 60 mg/kg, po Q3D co-administered with anti-PD1 measured for 15 to 20 days; assay type: functional; settings: time 15-20 day
[7] = Chemical stability of the compound in MeOH/H2O solvent assessed as half life by LC-MS/MS analysis; assay type: physicochemical
[8] = Metabolic stability in mouse liver microsomes assessed as half life at 10 uM measured up to 60 mins by LC-MS/MS analysis; assay type: ADME, Microsome
[9] = Chemical stability of the compound in MeOH/H2O assessed as half life by LC-MS/MS analysis; assay type: physicochemical
MC-38 [10] = assay: In vivo antitumor activity against mouse MC-38 cells inoculated in C57BL/6 mouse assessed as complete tumor regression (CR) at 60 mg/kg, po Q3D measured for 15 to 20 days; assay type: functional, organism-based; settings: time 15-20 day
MC-38 [11] = assay: In vivo antitumor activity against mouse MC-38 cells inoculated in C57BL/6 mouse assessed as as increase in moue survival time at 60 mg/kg, po Q3D measured for 15 to 20 days; assay type: functional, organism-based; settings: time 15-20 day
[12] = Metabolic stability in human liver microsomes assessed as half life at 10 uM measured up to 60 mins by LC-MS/MS analysis; assay type: ADME, Microsome
[13] = Stability of the compound in human plasma assessed as half life by LC-MS/MS analysis; assay type: ADME, cell-free
[14] = Half life in mouse at 10 mg/kg, po by LC-MS/MS analysis; assay type: ADME, organism-based; settings: in vivo
[15] = Half life in mouse at 5 mg/kg, iv by LC-MS/MS analysis; assay type: ADME, organism-based; settings: in vivo
[16] = Cmax in mouse at 5 mg/kg, iv by LC-MS/MS analysis; assay type: ADME, organism-based; settings: in vivo
[17] = Oral bioavailability in mouse at 10 mg/kg by LC-MS/MS analysis; assay type: ADME, organism-based; settings: in vivo
[18] = Clearance in mouse at 10 mg/kg, po by LC-MS/MS analysis; assay type: ADME, organism-based; settings: in vivo
[19] = AUC in mouse at 5 mg/kg, iv by LC-MS/MS analysis; assay type: ADME, organism-based; settings: in vivo
[20] = Cmax in mouse at 10 mg/kg, po by LC-MS/MS analysis; assay type: ADME, organism-based; settings: in vivo
[21] = AUC in mouse at 10 mg/kg, po by LC-MS/MS analysis; assay type: ADME, organism-based; settings: in vivo
[22] = Clearance in mouse at 5 mg/kg, iv by LC-MS/MS analysis; assay type: ADME, organism-based; settings: in vivo
[23] = biological target: T1, Stimulator of interferon genes protein; assay: Agonist activity at human STING in human THP1-Blue ISG cells measured after 24 hrs incubation by QUANTI-Blue based microplate reader; assay type: cell-based
Target sequence in this assay (Q86WV6 whole entry): as the sequence (Q86WV6 whole entry, looked up, change not shown) above

THP-1 [24] = assay: Induction of interferon secretion in human THP-1 cells assessed as IFN-beta level at 13 uM measured after 24 hrs by ELISA; assay type: functional, cell-based
THP-1 [25] = assay: Induction of interferon response in STING knock out human THP-1 cells assessed as fold change in stimulation activity at 13 to 25 uM measured after 24 hrs incubation by QUANTI-Luc4 based microplate reader; assay type: functional, cell-based; settings: dose 13-25 µM
[26] = biological target: T3, Interferon regulatory factor 3 (Homo sapiens) (UniProt Q14653); assay: Induction of IRF3 phosphorylation in human THP1-Blue ISG cells at 13 to 50 uM measured after 3 hrs by Western blot analysis; assay type: cell-based; settings: filed as agonist, dose 13-50 µM
T3 sequence (whole entry): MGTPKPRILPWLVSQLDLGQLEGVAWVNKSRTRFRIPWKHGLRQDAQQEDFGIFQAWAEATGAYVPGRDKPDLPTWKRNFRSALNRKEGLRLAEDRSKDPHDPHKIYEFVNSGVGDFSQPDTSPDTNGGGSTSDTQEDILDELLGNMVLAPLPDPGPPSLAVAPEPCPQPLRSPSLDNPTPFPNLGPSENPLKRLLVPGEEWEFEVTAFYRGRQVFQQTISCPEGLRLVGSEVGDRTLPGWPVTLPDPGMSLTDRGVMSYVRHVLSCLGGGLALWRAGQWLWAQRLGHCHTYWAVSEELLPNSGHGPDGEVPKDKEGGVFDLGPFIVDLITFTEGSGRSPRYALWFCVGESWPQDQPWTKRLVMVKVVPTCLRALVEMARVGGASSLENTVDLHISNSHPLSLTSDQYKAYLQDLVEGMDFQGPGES

THP1-Blue ISG = assay: Induction of STING phosphorylation in human THP1-Blue ISG cells at 13 to 50 uM measured after 3 hrs by Western blot analysis; assay type: cell-based; settings: filed as agonist, dose 13-50 µM

EC50 [1] [µM]	IC50 [2] [µM]	EC50 [3] [µM]	EC50 [4] [µM]	SMILES	other results
> 100				C#Cc1c(C(=O)NCCC(=O)O)sc2cc(OC)c(OC)cc12	
7.1	30.6	33.1	25.1	COc1cc2sc(C(=O)NCC(C)C(=O)O)c(F)c2cc1OC (racemic)	
4.8	24.6	17.2	15.7	CCC(CNC(=O)c1sc2cc(OC)c(OC)cc2c1F)C(=O)O (racemic)	
> 100				COc1cc2sc(C(=O)NCCC(=O)O)c(I)c2cc1OC	
4.5	22.1	19.6	25.3	COc1cc2sc3c(c2cc1OC)C(=O)N(CCC(=O)O)C3=O	half-life [5]: > 1 h; Activity (MC-38 [6]): 60%; half-life [7]: 0.35 h; half-life at 10 µM [8]: > 1 h; half-life [9]: 21 h; Activity (MC-38 [10]): inactive; Activity (MC-38 [11]): inactive; half-life at 10 µM [12]: > 1 h; half-life [13]: 0.5 h
6.2	33.3	58.5	61.2	COc1cc2sc(C(=O)NC[C@H](C)C(=O)O)c(F)c2cc1OC	
> 100				COc1cc2sc(C(=O)NCCC(=O)O)c(F)c2cc1OC(C)C	
> 100				COc1cc2sc(C(=O)N[C@@H](CC(=O)O)C(N)=O)c(F)c2cc1OC	
> 100				CCC(CNC(=O)c1sc2cc(OC)c(OC)c(F)c2c1F)C(=O)O (centres undefined)	
> 100				COc1cc2sc(C(=O)NCCB(O)O)c(F)c2cc1OC	
> 100				COc1cc2sc(C(=O)NCC(C)(C)C(=O)O)c(F)c2cc1OC	
4.4	22.5	8.8	8.1	COc1cc2cc(C(=O)CCC(=O)O)sc2cc1OC	half-life [14]: 1.5 h; half-life [15]: 0.3 h; Cmax [16]: 25100 ng/mL; Activity (MC-38 [10]): inactive; bioavailability [17]: 52%; Activity (MC-38 [11]): inactive; CL/F [18]: 22 mL/min/kg; AUC [19]: 7260 ng·h/mL; Cmax [20]: 13400 ng/mL; AUC [21]: 7570 ng·h/mL; clearance [22]: 11.5 mL/min/kg
30.3	49.8			COc1cc2sc(C(=O)NCCC(=O)O)c(F)c2cc1OC	half-life [9]: > 48 h; EC50 [23]: 30.3 µM
> 100				COc1cc2sc(C(=O)N[C@H](C)CC(=O)O)c(F)c2cc1OC	
> 100				CCOc1cc2c(F)c(C(=O)NCCC(=O)O)sc2cc1OC	
	> 100			COc1cc2cc(C(=O)NCCC(=O)O)sc2cc1OC	EC50 [23]: > 100 µM
> 100				COc1cc2sc(C(=O)NCCC(O)(C(F)(F)F)C(F)(F)F)c(F)c2cc1OC	
> 100				COc1cc2sc(C(=O)NCCC(=O)NS(C)(=O)=O)c(F)c2cc1OC	
> 100				CONC(=O)C(F)(F)CNC(=O)c1sc2cc(OC)c(Br)cc2c1F	
54.6				COc1cc2sc(C(=O)NCCCC(=O)O)c(F)c2cc1OC	
5.1	24.1	12	11.9	CC[C@H](CNC(=O)c1sc2cc(OC)c(OC)cc2c1F)C(=O)O	Activity (THP-1 [24]): Active; Activity (THP-1 [25]): inactive; Activity [26]: Active; Activity (THP1-Blue ISG): Active
> 100				C=Cc1cc2c(F)c(C(=O)NCCC(=O)O)sc2cc1OC	

SMILES	EC50 [1] [µM]	IC50 [2] [µM]	EC50 [3] [µM]	EC50 [4] [µM]	other results
COc1cc2[se]c(C(=O)NCC(C)C(=O)O)c(F)c2cc1OC (centres undefined)	5.7		26.1	27	
CCC(CNC(=O)c1[se]c2cc(OC)c(OC)cc2c1F)C(=O)O (centres undefined)	3.8		13.3	12.5	
